Tests used:
[1] = test system: tonic–clonic seizures in mice; assay: Maximal electroshock seizure (MES) test; format: in vivo
Method: (§1) The experiments were conducted on adult male albino Swiss mice weighing 22–26 g. The animals were kept in colony cages under standardized laboratory conditions: natural light–dark cycle 12/12 h, temperature 20–24 °C, air humidity 45–65% and free access to tap water and food (chow pellets). After 7 days of adaptation to laboratory conditions, the animals were randomly assigned to experimental groups consisting of 8 mice. The experimental procedures described herein were approved by the Local Ethics Committee in Lublin, Poland (approval numbers: 71/2020 and 13/2021), and were conducted in accordance with EU Directive 2010/63/EU for animal experiments. All efforts were made to minimize animal suffering and to use only the number of animals necessary to produce reliable scientific data according to the 3Rs rule.
All substances (except PTZ and tetracaine hydrochloride dissolved in water for injections) were suspended in a 1% solution of Tween 80 (Sigma-Aldrich, Saint Louis, MO, USA) in water for injections (Baxter, Warszawa, Poland) or 0.9% NaCl. All drugs were injected intraperitoneally (i.p.) 30 min before all seizure models with 1 mL syringes as a single injection, in a volume of 10 mL/kg. The pretreatment time (30 min) before testing for KA-228 and KA-232 was chosen based on the time to peak of maximum anticonvulsant activity of KA-11 from our previous studies.
The tonic–clonic seizures in mice were evoked by an electric stimulus (an alternating current 25 mA, 50 Hz, maximum output voltage 500 V, 0.2 s) generated by a rodent shocker (Hugo Sachs Elektronik, Freiburg, Germany) and delivered via ear-clip electrodes. […] This experimental procedure has been described in detail in our previous studies.
The ED50 or TD50 values for tested substances in the acute animal models of seizures were calculated using the computer log-probit analysis. Subsequently, the ED50 and TD50 values (±SEM) were statistically analyzed using one-way analysis of variance (ANOVA) followed by the post hoc Dunnett’s test for multiple comparisons. Differences among values were considered statistically significant if p < 0.05. GraphPad Prism version 8 for Windows (GraphPad Software, San Diego, CA, USA) was used as a statistical software program. The results obtained from the acute ivPTZ test and grip strength test were evaluated by a Student’s t test. Fisher’s exact probability test was used to analyze protection from tonic forelimb and hindlimb extension in the ivPTZ test.

Chimney test = settings: male, albino Swiss, mouse, in vivo, ip, mice
Method: as §1
The chimney test of Boissier et al. was used to quantify the acute adverse-effect potential of KA-228 and KA-232 on motor performance in mice. […]
The ED50 or TD50 values for tested substances in the acute animal models of seizures were calculated using the computer log-probit analysis. Subsequently, the ED50 and TD50 values (±SEM) were statistically analyzed using one-way analysis of variance (ANOVA) followed by the post hoc Dunnett’s test for multiple comparisons. […] The results obtained from the acute ivPTZ test and grip strength test were evaluated by a Student’s t test. […]

Na^+ channel (site 2) = assay: Radioligand binding, Na+ channel (site 2); set-up: species or system rat; settings: 10 µM
Method: (§2) Dysfunction of both sodium and calcium ion channels is known to be one of the crucial reasons behind the pathogenesis of seizures. Consequently, these ion channels are molecular targets for several clinically important ASDs such as lacosamide, lamotrigine, carbamazepine, oxcarbazepine and compounds currently under preclinical and clinical studies. Thus, for KA-228 and KA-232, we tested herein their binding profile toward the aforementioned ion channels at concentrations of 10 and 100 µM (Table 3). […] Apart from in vitro studies focused on explaining the mechanism of action, KA-232 was additionally tested for its interaction with the potassium channel (hERG) which is recognized as one of the most important ‘off-targets’ responsible for harmful arrhythmogenic activity. Thus, the interaction of potential drug candidates with hERG must be excluded at an early stage of development.
(§3) Binding studies were carried out commercially in Eurofins Laboratories (Poitiers, France or New Taipei City, Taiwan).

[2] = test system: Calcium Cav1.2 channels (dihydropyridine site, antagonist radioligand); assay: Radioligand binding, Cav1.2 dihydropyridine site; set-up: species or system rat
Method: as §2, §3

[3] = molecular target: T1, Calcium Cav2.2 channel (antagonist radioligand) (Rattus norvegicus, UniProt Q02294); assay: Radioligand binding, Cav2.2 channel
T1 construct: rat cerebral cortex; tissue Eurofins Laboratories; host or cells: rat cerebral cortex
T1 sequence (Q02294 whole entry): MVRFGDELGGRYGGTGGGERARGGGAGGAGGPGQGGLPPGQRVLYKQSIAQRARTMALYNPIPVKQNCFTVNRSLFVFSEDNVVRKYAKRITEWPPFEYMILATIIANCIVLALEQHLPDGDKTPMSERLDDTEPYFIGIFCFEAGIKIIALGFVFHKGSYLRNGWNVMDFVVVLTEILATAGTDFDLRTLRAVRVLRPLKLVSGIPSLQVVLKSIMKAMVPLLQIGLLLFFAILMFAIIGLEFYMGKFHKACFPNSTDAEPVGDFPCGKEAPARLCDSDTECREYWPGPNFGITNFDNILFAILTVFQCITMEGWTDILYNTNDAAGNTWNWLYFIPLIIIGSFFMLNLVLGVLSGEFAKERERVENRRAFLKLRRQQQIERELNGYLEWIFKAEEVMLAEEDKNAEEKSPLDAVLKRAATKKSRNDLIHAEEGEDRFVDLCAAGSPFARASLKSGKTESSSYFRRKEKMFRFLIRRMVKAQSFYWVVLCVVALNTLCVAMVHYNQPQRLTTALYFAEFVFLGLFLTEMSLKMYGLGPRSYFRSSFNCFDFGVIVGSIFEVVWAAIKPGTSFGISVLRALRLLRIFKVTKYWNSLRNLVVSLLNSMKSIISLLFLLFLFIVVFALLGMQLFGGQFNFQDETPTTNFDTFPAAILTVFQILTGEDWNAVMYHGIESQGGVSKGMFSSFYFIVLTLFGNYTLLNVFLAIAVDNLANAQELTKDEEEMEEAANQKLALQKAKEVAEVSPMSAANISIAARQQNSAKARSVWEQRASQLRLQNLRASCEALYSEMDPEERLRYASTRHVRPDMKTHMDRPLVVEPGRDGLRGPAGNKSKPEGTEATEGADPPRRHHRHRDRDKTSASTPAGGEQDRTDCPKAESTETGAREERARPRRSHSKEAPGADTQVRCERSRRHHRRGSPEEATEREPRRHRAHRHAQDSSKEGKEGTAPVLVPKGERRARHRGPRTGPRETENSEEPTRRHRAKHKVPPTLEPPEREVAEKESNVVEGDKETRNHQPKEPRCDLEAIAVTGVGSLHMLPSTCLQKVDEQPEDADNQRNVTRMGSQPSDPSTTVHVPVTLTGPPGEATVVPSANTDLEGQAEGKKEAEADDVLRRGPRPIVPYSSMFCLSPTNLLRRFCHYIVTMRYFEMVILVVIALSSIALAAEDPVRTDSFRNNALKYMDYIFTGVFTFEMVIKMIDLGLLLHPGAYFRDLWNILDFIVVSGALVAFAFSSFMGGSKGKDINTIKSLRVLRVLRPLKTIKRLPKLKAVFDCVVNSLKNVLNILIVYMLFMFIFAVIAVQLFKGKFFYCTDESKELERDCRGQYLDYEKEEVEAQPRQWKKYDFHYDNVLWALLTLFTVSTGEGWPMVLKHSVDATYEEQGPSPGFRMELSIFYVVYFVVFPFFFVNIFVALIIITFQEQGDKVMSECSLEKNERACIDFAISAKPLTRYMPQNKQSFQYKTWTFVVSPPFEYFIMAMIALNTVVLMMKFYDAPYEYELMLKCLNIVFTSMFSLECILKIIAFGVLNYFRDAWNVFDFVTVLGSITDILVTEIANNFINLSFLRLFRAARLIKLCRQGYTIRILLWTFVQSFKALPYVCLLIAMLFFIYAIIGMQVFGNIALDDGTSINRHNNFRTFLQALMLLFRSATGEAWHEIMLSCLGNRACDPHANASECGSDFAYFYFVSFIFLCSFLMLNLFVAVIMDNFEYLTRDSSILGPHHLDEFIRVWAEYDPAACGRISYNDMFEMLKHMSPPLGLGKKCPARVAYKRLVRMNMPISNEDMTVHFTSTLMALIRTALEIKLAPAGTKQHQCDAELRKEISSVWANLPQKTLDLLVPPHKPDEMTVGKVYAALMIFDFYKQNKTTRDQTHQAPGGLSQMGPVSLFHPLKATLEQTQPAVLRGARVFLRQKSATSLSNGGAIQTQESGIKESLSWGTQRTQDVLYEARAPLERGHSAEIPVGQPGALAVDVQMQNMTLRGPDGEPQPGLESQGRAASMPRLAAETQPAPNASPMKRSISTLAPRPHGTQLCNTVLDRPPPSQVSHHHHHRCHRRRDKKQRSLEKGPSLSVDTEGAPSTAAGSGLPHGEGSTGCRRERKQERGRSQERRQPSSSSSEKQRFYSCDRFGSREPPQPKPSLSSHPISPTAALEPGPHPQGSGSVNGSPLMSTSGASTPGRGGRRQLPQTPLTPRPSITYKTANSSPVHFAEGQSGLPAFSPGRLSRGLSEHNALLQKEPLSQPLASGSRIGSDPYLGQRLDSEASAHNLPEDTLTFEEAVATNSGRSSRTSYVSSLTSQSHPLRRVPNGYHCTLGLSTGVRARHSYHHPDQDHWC
Method: as §2, §3

[4] = molecular target: GABAA (α1,β2,γ2) (agonist radioligand) (Homo sapiens, UniProt P14867+P47870); assay: Radioligand binding, GABAA
Sequence of GABAA (α1,β2,γ2) (agonist radioligand) (P14867 28-456): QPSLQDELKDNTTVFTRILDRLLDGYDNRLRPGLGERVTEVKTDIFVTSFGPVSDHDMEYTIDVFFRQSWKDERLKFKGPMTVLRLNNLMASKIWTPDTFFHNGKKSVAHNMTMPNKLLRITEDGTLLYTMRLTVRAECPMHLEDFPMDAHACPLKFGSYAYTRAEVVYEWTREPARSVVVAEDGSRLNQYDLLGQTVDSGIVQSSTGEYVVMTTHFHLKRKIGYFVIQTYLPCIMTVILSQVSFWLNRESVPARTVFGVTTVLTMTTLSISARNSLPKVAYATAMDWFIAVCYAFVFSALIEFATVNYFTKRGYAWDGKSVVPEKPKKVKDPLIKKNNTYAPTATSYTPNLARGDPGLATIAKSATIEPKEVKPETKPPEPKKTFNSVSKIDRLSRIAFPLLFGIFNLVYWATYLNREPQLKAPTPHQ
Sequence of GABAA (α1,β2,γ2) (agonist radioligand) (P47870 25-512 limits assumed): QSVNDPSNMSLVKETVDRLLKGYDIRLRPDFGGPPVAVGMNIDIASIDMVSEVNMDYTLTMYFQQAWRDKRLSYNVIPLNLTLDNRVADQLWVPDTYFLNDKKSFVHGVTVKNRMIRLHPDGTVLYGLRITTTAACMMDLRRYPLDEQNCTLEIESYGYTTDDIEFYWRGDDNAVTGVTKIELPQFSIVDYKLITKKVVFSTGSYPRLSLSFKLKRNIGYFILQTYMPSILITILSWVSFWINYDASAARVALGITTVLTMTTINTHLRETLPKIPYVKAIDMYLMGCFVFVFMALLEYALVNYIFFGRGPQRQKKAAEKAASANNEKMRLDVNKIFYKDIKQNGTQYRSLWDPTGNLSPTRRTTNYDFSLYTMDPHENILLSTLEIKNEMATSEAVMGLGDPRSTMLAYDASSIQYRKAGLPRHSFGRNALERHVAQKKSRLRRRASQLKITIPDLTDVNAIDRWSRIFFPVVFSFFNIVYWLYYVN
Sequence of GABAA (α1,β2,γ2) (agonist radioligand) (P18507 40-475 partner): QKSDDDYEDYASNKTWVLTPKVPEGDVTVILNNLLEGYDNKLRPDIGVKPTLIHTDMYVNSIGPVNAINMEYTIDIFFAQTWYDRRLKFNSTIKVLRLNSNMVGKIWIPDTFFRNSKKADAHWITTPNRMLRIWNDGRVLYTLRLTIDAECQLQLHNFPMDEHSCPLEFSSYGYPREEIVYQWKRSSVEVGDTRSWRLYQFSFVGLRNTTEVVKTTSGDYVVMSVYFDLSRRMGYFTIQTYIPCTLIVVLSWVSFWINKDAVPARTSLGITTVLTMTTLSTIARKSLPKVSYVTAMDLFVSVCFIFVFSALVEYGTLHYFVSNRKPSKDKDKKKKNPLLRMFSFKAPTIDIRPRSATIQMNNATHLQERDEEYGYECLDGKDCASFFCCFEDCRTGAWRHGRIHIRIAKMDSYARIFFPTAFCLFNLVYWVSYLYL

neuroblastoma SH-SY5Y = assay: Neurotoxicity, SH-SY5Y cell viability; format: cell-based, human
Text: The assays and protocols used for evaluating the KA-232 ADME-Tox parameters were similar to those described previously for compound KA-11 [6].
Figure 9 The effect of KA-232 and the reference drug ketoconazole (KE) on CYP3A4 activity (A). The effect of KA-232 and the reference drug quinidine (QD) on CYP2D6 activity (B). The effect of KA-232 and the reference cytostatic drug doxorubicin (DX) on the HepG2 cell line (C) and the SH-SY5Y cell line (D) viability. Statistical significance (* p < 0.05, **** p < 0.0001) was analyzed by Graph Pad Prism 8 software using one-way ANOVA and Bonferroni’s Multiple Comparison Post Test.

[5] = Stability in PBS buffer during PAMPA incubation; format: physicochemical; settings: 5 h incubation in PAMPA plate, PBS pH 7.4, RT
[6] = read-out: % Inhibition of Control Specific Binding

CC(C(=O)N1CCN(c2cccc(C(F)(F)F)c2)CC1)N1C(=O)CC(N(C)C)C1=O.Cl (stereo not shown) [KA-232, 3-(Dimethylamino)-1-(1-oxo-1-(4-(3-(trifluoromethyl)phenyl)piperazin-1-yl)propan-2-yl)pyrrolidine-2,5-dione hydrochloride]
ED50 ([1]; Mus musculus, ip, 30 min before test, read-out: ED50 MES ± SD): 61.8 ± 26.9 mg/kg | TI (TD50/ED50), MES ([1]; i.p.): 2.63 | TD50 at 30 min (Chimney test): 163 ± 31.2 mg/kg | % Inhibition of Control Specific Binding (Na^+ channel (site 2)): 3.8% | % Inhibition of Control Specific Binding ([2]; 10 µM): −6.3% | % Inhibition of Control Specific Binding ([2]; 100 µM): 18.5% | % Inhibition of Control Specific Binding ([3]; 10 µM): did not interact | inhibition at 10 µM [3, 6]: 10.6% | % Inhibition of Control Specific Binding ([4]; 10 µM): did not interact | inhibition at 10 µM [4, 6]: -6.7% | SH-SY5Y viability (% of control ± SD) (neuroblastoma SH-SY5Y; 10 µM): 99.44 ± 5.89 % of control | neurotoxic effect on SH-SY5Y cell line (neuroblastoma SH-SY5Y; all used doses): no neurotoxic effect | stability in physiological buffer [5]: some products of KA-232 degradation at the pyrrolidine-2,5-dione moiety were observed

Reference: PMC10179080, “In Vivo and In Vitro Characterization of Close Analogs of Compound KA-11, a New Antiseizure Drug Candidate” (International Journal of Molecular Sciences, 2023)
